Counter-ions that a name gives are not always drawn.
Experiments:
[1] = target: purified human Factor XIa (Homo sapiens (Human), UniProt P03951); experiment: Factor XIa enzyme inhibition assay (chromogenic substrate S-2366); conditions: read-out: Factor XIa Ki; measured at 25° C.
[2] = target: purified human plasma kallikrein (Homo sapiens (Human), UniProt P03952); experiment: Plasma kallikrein enzyme inhibition assay (chromogenic substrate S-2302); format: biochemical; conditions: measured at 25° C. (no asterisk)
Chain of purified human plasma kallikrein (P03952 391-638): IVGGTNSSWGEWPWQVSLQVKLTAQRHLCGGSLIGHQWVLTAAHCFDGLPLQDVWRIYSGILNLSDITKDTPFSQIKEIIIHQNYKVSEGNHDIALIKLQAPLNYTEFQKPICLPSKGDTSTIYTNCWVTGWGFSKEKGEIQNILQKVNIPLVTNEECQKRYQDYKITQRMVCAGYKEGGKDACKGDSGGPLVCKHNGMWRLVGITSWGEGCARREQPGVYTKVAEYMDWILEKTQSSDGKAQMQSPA
Chain of purified human plasma kallikrein (P03952 20-390 partner): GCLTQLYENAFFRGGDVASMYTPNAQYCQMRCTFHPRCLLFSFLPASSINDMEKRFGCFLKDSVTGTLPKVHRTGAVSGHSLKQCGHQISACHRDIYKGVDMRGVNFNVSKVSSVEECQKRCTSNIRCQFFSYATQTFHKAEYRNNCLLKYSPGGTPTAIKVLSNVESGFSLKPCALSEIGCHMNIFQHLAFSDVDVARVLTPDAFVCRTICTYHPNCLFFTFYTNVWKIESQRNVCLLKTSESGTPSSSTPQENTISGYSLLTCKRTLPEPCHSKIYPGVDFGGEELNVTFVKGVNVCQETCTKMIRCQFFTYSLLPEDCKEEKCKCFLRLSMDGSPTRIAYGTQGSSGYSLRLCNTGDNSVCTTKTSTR
Experimental: The effectiveness of compounds of the present invention as inhibitors of the coagulation Factors XIa, VIIa, IXa, Xa, XIIa, plasma kallikrein or thrombin, can be determined using a relevant purified serine protease, respectively, and an appropriate synthetic substrate. The rate of hydrolysis of the chromogenic or fluorogenic substrate by the relevant serine protease was measured both in the absence and presence of compounds of the present invention. […] A decrease in the rate of absorbance or fluorescence change in the presence of inhibitor is indicative of enzyme inhibition. […] The results of this assay are expressed as the inhibitory constant, Ki.
Values of Ki were determined by allowing the protease to react with the substrate in the presence of the inhibitor.
The following relationships were used to calculate Ki values: (Vmax*S)/(Km+S); (vo−vs)/vs=I/(Ki(1+S/Km)) for a competitive inhibitor with one binding site; or vs/vo=A+((B−A)/1+((IC50/(I)n))); and Ki−IC50/((1+S/Km) for a competitive inhibitor where:

Chain of purified human Factor XIa (P03951 388-625): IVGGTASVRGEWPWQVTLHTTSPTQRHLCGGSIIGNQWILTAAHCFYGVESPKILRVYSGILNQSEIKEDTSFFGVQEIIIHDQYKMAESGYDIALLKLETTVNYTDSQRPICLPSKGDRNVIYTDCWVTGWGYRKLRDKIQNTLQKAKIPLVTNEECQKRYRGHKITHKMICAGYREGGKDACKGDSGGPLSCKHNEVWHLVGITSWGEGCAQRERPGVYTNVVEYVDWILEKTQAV
Chain of purified human Factor XIa (P03951 19-387 partner): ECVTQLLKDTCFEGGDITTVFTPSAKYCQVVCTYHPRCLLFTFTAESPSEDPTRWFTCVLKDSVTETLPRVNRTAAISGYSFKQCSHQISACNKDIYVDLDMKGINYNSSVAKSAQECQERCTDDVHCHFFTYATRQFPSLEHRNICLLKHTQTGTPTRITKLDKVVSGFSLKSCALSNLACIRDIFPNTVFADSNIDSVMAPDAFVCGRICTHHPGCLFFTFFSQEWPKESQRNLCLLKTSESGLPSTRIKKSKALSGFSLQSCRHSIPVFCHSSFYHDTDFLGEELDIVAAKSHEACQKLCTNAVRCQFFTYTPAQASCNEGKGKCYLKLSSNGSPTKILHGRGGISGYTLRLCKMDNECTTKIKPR

SMILES | Ki [1] | Ki [2]
COC1CN(c2cccc3c2CCN(C(=O)c2cn(-c4cccc(Cl)c4F)nn2)C3C(=O)Nc2ccc(C(=O)O)cc2)C1 (stereo not drawn) [Example 83, 4-(2-(1-(3-chloro-2-fluorophenyl)-1H-1,2,3-triazole-4-carbonyl)-5-(3-methoxyazetidin-1-yl)-1,2,3,4-tetrahydroisoquinoline-1-carboxamido)benzoic acid, TFA salt] | < 0.005 µM | 0.0121 µM
O=C(O)c1ccc(NC(=O)[C@H]2c3cccc(N4CCOCC4)c3CCN2C(=O)c2cnn(-c3cccc(Cl)c3F)c2)cc1 [Example 88, (R)-4-(2-(1-(3-Chloro-2-fluorophenyl)-1H-pyrazole-4-carbonyl)-5-morpholino-1,2,3,4-tetrahydroisoquinoline-1-carboxamido)benzoic acid, TFA salt] | 0.391 µM | 2.08 µM
O=C(O)c1ccc(NC(=O)[C@@H]2c3cccc(N4CCOCC4)c3CCN2C(=O)c2cnn(-c3cccc(Cl)c3F)c2)cc1 [Example 89, (S)-4-(2-(1-(3-Chloro-2-fluorophenyl)-1H-pyrazole-4-carbonyl)-5-morpholino-1,2,3,4-tetrahydroisoquinoline-1-carboxamido)benzoic acid, TFA salt] | < 0.005 µM | 0.0114 µM
O=C(O)c1ccc(NC(=O)[C@@H]2c3cccc(N4CCOCC4)c3CCN2C(=O)c2cn(-c3cccc(Cl)c3F)nn2)cc1 [Example 90, (S)-4-(2-(1-(3-Chloro-2-fluorophenyl)-1H-1,2,3-triazole-4-carbonyl)-5-morpholino-1,2,3,4-tetrahydroisoquinoline-1-carboxamido)benzoic acid, TFA salt] | < 0.005 µM | 0.00537 µM
O=C(O)c1ccc(NC(=O)[C@@H]2c3cccc(N4CCOCC4)c3CCN2C(=O)c2cn(-c3cccc(Cl)c3F)cn2)cc1 [Example 91, (S)-4-(2-(1-(3-Chloro-2-fluorophenyl)-1H-imidazole-4-carbonyl)-5-morpholino-1,2,3,4-tetrahydroisoquinoline-1-carboxamido)benzoic acid, TFA salt] | < 0.005 µM | 0.00384 µM
O=C(O)c1ccc(NC(=O)C2c3cccc(N4CCC(N5CCCC5=O)CC4)c3CCN2C(=O)c2cn(-c3cccc(Cl)c3F)cn2)cc1 (stereo not drawn) [Example 92, 4-(2-(1-(3-Chloro-2-fluorophenyl)-1H-imidazole-4-carbonyl)-5-(4-(2-oxopyrrolidin-1-yl)piperidin-1-yl)-1,2,3,4-tetrahydroisoquinoline-1-carboxamido)benzoic acid, TFA salt] | < 0.005 µM | 0.0056 µM
CN(C)C1CCN(c2cccc3c2CCN(C(=O)c2cnn(-c4cccc(Cl)c4F)c2)C3C(=O)Nc2ccc(-c3ncco3)cc2)CC1 (stereo not drawn) [Example 93, 2-(1-(3-Chloro-2-fluorophenyl)-1H-pyrazole-4-carbonyl)-5-(4-(dimethylamino)piperidin-1-yl)-N-(4-(oxazol-2-yl)phenyl)-1,2,3,4-tetrahydroisoquinoline-1-carboxamide, bis-TFA salt] | 0.00665 µM | 0.00965 µM
CN(C)C1CCN(c2cccc3c2CCN(C(=O)c2cnn(-c4cccc(Cl)c4F)c2)C3C(=O)Nc2ccc(OCC3CCCO3)cc2)CC1 (stereo not drawn) [Example 95, 2-(1-(3-chloro-2-fluorophenyl)-1H-pyrazole-4-carbonyl)-5-(4-(dimethylamino)piperidin-1-yl)-N-(4-((tetrahydrofuran-2-yl)methoxy)phenyl)-1,2,3,4-tetrahydroisoquinoline-1-carboxamide, TFA salt] | 0.0147 µM | 0.0169 µM
CN(C)C1CCN(c2cccc3c2CCN(C(=O)c2cnn(-c4cccc(Cl)c4F)c2)C3C(=O)Nc2ccc(OC(F)F)cc2)CC1 (stereo not drawn) [Example 96, 2-(1-(3-chloro-2-fluorophenyl)-1H-pyrazole-4-carbonyl)-N-(4-(difluoromethoxy)phenyl)-5-(4-(dimethylamino)piperidin-1-yl)-1,2,3,4-tetrahydroisoquinoline-1-carboxamide, TFA salt] | 0.0203 µM | 0.034 µM
